Laboratory results taken from PMC11878095, “Interspecies signaling modulates the biosynthesis of antimicrobial secondary metabolites related to biological control activities of Pseudomonas fluorescens 2P24” (Microbiology Spectrum, 2025).

Target: T1, PhlH (2P24_PhlH) (Pseudomonas fluorescens, UniProt Q4JIX5)
T1 construct: purified recombinant His6-tagged PhlH
Assay: ITC ([…] °C, one-site model); EMSA shows PLT releases PhlH from phlG promoter DNA
Type: binding

T1 sequence (Q4JIX5 entry or part of it): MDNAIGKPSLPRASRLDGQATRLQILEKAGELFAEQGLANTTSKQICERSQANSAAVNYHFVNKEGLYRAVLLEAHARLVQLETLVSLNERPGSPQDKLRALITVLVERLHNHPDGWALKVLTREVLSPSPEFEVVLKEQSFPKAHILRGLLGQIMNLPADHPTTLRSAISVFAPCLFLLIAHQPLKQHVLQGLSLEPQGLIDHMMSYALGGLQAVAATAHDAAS

`O=C(c1cc(Cl)c(Cl)[nH]1)c1c(O)cccc1O` [PLT, pyoluteorin] gave a Kd of 1 µM.
